Assay results published in US10351553B2, “Potassium channel modulators” (Cadent Therapeutics, Inc., priority 2017, dated 2019).
Values after ≈ are worked out from the molar mass of the structure shown.

Tests used:
[1] = Aqueous (kinetic) solubility, shake-flask, phosphate buffer pH 7.4; type: physicochemical; conditions: 23 °C, kinetic from dmso stock, phosphate buffer pH 7.4, 16 hours at room temperature
Protocol: Aqueous solubility (kinetic solubility) tests of the compounds were performed in phosphate buffer saline (pH 7.4) measured by shake-flask method. In this assay, DMSO stock solution of test compound is added to buffer followed by equilibration (shaking), filtration and determination of soluble amount by HPLC-UV Conditions used in the assay are summarized below.

[2] = Brain free fraction by equilibrium dialysis in rat brain tissue homogenate; type: in vitro ADME; conditions: 10% rat brain tissue homogenate, Tables 2 and 3
Protocol: The extent to which compounds modulate SK2 channels in vivo is expressed as % SK2 SC100, which is the ratio of the concentration of the drug free in the brain to the measured potency of the compound on the SK2 channel. It is calculated as follows: CFB=CMB×BFF, where CMB is the concentration of compound measured by liquid chromatography mass spectrometry from brains harvested immediately following tremor recording (Table 1, “Measured Brain Concentration”). CFB is the amount of free compound not complexed with protein and therefore free to interact with the SK2 channel (Table 1, “Calculated Free Brain Concentration”). BFF is average free fraction of compound as measured by equilibrium dialysis in separate experiments (1 uM test concentration incubated in 10% rat brain tissue homogenate for 5 hours at 37° C.) (Table 1, “Brain Free Fraction”). Free drug in brain available to interact with SK2 channels (CFB) is arrived at by multiplying the measured total brain level (CMB) by the average free fraction (BFF).

SK2 channels = molecular target: T1, SK2 channels (Homo sapiens, UniProt Q9H2S1); test: Whole-cell patch-clamp of SK2 current in HEK293 cells expressing SK2 channels; type: cell-based; conditions: Table 2; concentration that produces doubling of channel current; averages from later experiments
T1 construct: expressed in transfected cells; host or cells: HEK293
Protocol: The biological activity was determined as follows. The ionic current through small-conductance Ca^2+-activated K^+ channels (SK channels, subtype 2) was measured using the whole-cell configuration of the patch-clamp technique in a patch-clamp set-up using HEK293 tissue culture cells expressing SK2 channels as described in Hougaard et al., British Journal of Pharmacology 151, 655-665, May 8, 2007, the entire teachings of which are incorporated herein by reference. In one aspect, a compound is defined to be an SK Positive Allosteric Modulator (PAM) if the compound increases current in this assay, for example, if the SC100 value of the compound is less than or equal to 10 μM as determined by this assay. The SC100 value is defined to be the concentration of compound that increases the basal current by 100%.

Structure (SMILES)	solubility kinetic at 16 h [1] [µg/mL]	fraction unbound at 5 h, 1 uM [2]	SK2 potency (SC100) (SK2 channels) [µM]
Cc1csc(-c2nc(NC3CCC(F)(F)CC3)cc([C@H](C)O)n2)n1 (single isomer, unassigned) [Compound 5]	80.3 (≈ 227 µM)	0.042	
Cc1cc(C)n(-c2nc(Nc3ccc(Cl)cc3)cc(N3CCOCC3)n2)n1 [Comparator C, reference compound]	1 (≈ 2.6 µM)	0.0016	
Cc1ccn(-c2nc(N[C@@H]3CCCC[C@H]3F)cc(N3CCOCC3)n2)n1 [Comparator B, reference compound]			5.8
Cc1csc(-c2nc(NC3CCC(F)(F)CC3)cc([C@@H](C)O)n2)n1 (single isomer, unassigned) [Compound 6]	66.7 (≈ 188 µM)	0.0431	
FC1(F)CCC(Nc2cc(N3CCOCC3)nc(-n3ccc(C4CC4)n3)n2)CC1 [Compound 7, 2-(3-cyclopropyl-1H-pyrazol-1-yl)-N-(4,4-difluorocyclohexyl)-6-morpholinopyrimidin-4-amine]	49.7 (≈ 123 µM)	0.0155	
COc1cc(NC2CCC(F)(F)CC2)nc(-n2nc(C)cc2C)n1 [Compound 2, N-(4,4-difluorocyclohexyl)-2-(3,5-dimethyl-1H-pyrazol-1-yl)-6-methoxypyrimidin-4-amine]	31 (≈ 91.9 µM)	0.0276	
COc1cc(NC2CCC(F)(F)CC2)nc(-c2nc(C)cs2)n1 [Compound 3, N-(4,4-difluorocyclohexyl)-6-methoxy-2-(4-methylthiazol-2-yl) pyrimidin-4-amine]	70.9 (≈ 208 µM)	0.0269	
